Laboratory results taken from patent US9115093B2, “Substituted bicyclic dihydropyrimidinones and their use as inhibitors of neutrophil elastase activity” (Boehringer Ingelheim International GmbH, priority 2013, dated 2015).

biological target: T1, neutrophil elastase (Homo sapiens, UniProt P08246); assay: Human Neutrophil Elastase Assay; type: biochemical; set-up: purchased Calbiochem 324681; details: substrate MeOSuc-Ala-Ala-Pro-Val-AMC, pH 7.5, room temperature
T1 sequence (P08246 30-247 limits assumed): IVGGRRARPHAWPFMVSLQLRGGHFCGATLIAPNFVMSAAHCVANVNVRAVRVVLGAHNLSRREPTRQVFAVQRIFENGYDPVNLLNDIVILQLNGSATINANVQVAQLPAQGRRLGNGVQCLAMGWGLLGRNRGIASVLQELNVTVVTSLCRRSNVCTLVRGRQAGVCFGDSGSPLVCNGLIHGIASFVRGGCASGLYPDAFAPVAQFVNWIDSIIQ
Procedure, shortened: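 Readout: AMC fluorescence (ex 380, em 460 nm) after 60 min room-temperature reaction with 250 nM MeOSuc-AAPV-AMC, following 15 min compound–enzyme preincubation. Buffer: Tris/NaCl pH 7.5, 0.01% BSA.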

Point of comparison: CS(=O)(=O)c1cc(C#N)ccc1C1NC(=O)N(c2ccnc(C(F)(F)F)c2)C2=C1C(=O)CCC2 (stereo not shown) [Example 57, 4-(2,5-Dioxo-1-(2-(trifluoromethyl)pyridin-4-yl)-1,2,3,4,5,6,7,8-octahydroquinazolin-4-yl)-3-(methylsulfonyl)benzonitrile], IC50 0.0732 µM. Against it:
- CN1CCN(C(=O)N2C(=O)N(c3cccc(C(F)(F)F)c3)C3=C(C(=O)CCC3)C2c2ccc(C#N)cc2)CC1=O (stereo not shown) [Example 39.16] — 1.6-fold lower, 0.0469 µM
- N#Cc1ccc(C2C3=C(CCCC3=O)N(c3cccc(C(F)(F)F)c3)C(=O)N2C(=O)NCC2CCC(=O)N2)cc1 (stereo not shown) [Example 39.17] — lower, < 0.001 µM
- COC1CCN(C(=O)N2C(=O)N(c3cccc(C(F)(F)F)c3)C3=C(C(=O)CCC3)C2c2ccc(C#N)cc2)CC1 (stereo not shown) [Example 39.18] — within 1.5-fold, 0.0791 µM
- CS(=O)(=O)c1ccc(CNC(=O)N2C(=O)N(c3cccc(C(F)(F)F)c3)C3=C(C(=O)CCC3)C2c2ccc(C#N)cc2)nc1 (stereo not shown) [Example 39.20] — lower, < 0.001 µM
- COC(=O)N1C(=O)N(c2cccc(C(F)(F)F)c2)C2=C(C(=O)CCC2)C1c1ccc(C#N)cc1 (stereo not shown) [Example 40, Methyl 4-(4-Cyanophenyl)-2,5-dioxo-1-(3-(trifluoromethyl)phenyl)-1,2,5,6,7,8-hexahydroquinazoline-3(4H)-carboxylate] — 8.1-fold lower, 0.009 µM
- COCCOC(=O)N1C(=O)N(c2cccc(C(F)(F)F)c2)C2=C(C(=O)CCC2)C1c1ccc(C#N)cc1 (stereo not shown) [Example 41, 2-Methoxyethyl 4-(4-Cyanophenyl)-2,5-dioxo-1-(3-(trifluoromethyl)phenyl)-1,2,5,6,7,8-hexahydroquinazoline-3(4H)-carboxylate] — 8-fold lower, 0.0091 µM
- CC(C)(C)COC(=O)N1C(=O)N(c2cccc(C(F)(F)F)c2)C2=C(C(=O)CCC2)C1c1ccc(C#N)cc1 (stereo not shown) [Example 42, Neopentyl 4-(4-Cyanophenyl)-2,5-dioxo-1-(3-(trifluoromethyl)phenyl)-1,2,5,6,7,8-hexahydroquinazoline-3(4H)-carboxylate] — within 1.5-fold, 0.0887 µM
- CS(=O)(=O)N1C(=O)N(c2cccc(C(F)(F)F)c2)C2=C(C(=O)CCC2)C1c1ccc(C#N)cc1 (stereo not shown) [Example 43, 4-(3-(Methylsulfonyl)-2,5-dioxo-1-(3-(trifluoromethyl)phenyl)-1,2,3,4,5,6,7,8-octahydroquinazolin-4-yl)benzonitrile] — 18-fold lower, 0.004 µM
- COC(=O)c1cc(S(=O)(=O)N2C(=O)N(c3cccc(C(F)(F)F)c3)C3=C(C(=O)CCC3)C2c2ccc(C#N)cc2)cs1 (stereo not shown) [Example 44, Methyl 4-(4-(4-Cyanophenylcyanophenyl)-2,5-dioxo-1-(3-(trifluoromethyl)phenyl)-1,2,5,6,7,8-hexahydroquinazolin-3(4H)-ylsulfonyl)thiophene-2-carboxylate] — 3.3-fold lower, 0.022 µM
- CCS(=O)(=O)N1C(=O)N(c2cccc(C(F)(F)F)c2)C2=C(C(=O)CCC2)C1c1ccc(C#N)cc1 (stereo not shown) [Example 44.1] — 14-fold lower, 0.0051 µM
- CCCS(=O)(=O)N1C(=O)N(c2cccc(C(F)(F)F)c2)C2=C(C(=O)CCC2)C1c1ccc(C#N)cc1 (stereo not shown) [Example 44.2] — 24-fold lower, 0.003 µM
- CC(C)CS(=O)(=O)N1C(=O)N(c2cccc(C(F)(F)F)c2)C2=C(C(=O)CCC2)C1c1ccc(C#N)cc1 (stereo not shown) [Example 44.3] — 14-fold lower, 0.0051 µM
- N#Cc1ccc(C2C3=C(CCCC3=O)N(c3cccc(C(F)(F)F)c3)C(=O)N2S(=O)(=O)c2ccco2)cc1 (stereo not shown) [Example 44.4] — 4.7-fold lower, 0.0156 µM
- N#Cc1ccc(C2C3=C(CCCC3=O)N(c3cccc(C(F)(F)F)c3)C(=O)N2S(=O)(=O)c2ccccc2)cc1 (stereo not shown) [Example 44.5] — 2.1-fold lower, 0.0349 µM
- N#Cc1ccc(C2C3=C(CCCC3=O)N(c3cccc(C(F)(F)F)c3)C(=O)N2S(=O)(=O)c2cccnc2)cc1 (stereo not shown) [Example 44.6] — 3.3-fold lower, 0.0223 µM
- Cn1ccc(S(=O)(=O)N2C(=O)N(c3cccc(C(F)(F)F)c3)C3=C(C(=O)CCC3)C2c2ccc(C#N)cc2)n1 (stereo not shown) [Example 44.7] — 4.6-fold lower, 0.0159 µM
- N#Cc1ccc(C2C3=C(CCCC3=O)N(c3cccc(C(F)(F)F)c3)C(=O)N2S(=O)(=O)Cc2ccccc2)cc1 (stereo not shown) [Example 44.8] — 8.1-fold lower, 0.009 µM
- CS(=O)(=O)CS(=O)(=O)N1C(=O)N(c2cccc(C(F)(F)F)c2)C2=C(C(=O)CCC2)C1c1ccc(C#N)cc1 (stereo not shown) [Example 44.9] — 22-fold lower, 0.0034 µM
- COC(=O)CCCS(=O)(=O)N1C(=O)N(c2cccc(C(F)(F)F)c2)C2=C(C(=O)CCC2)C1c1ccc(C#N)cc1 (stereo not shown) [Example 44.10, methyl 4-(4-(4-cyanophenyl)-2,5-dioxo-1-(3-(trifluoromethyl)phenyl)-1,2,5,6,7,8-hexahydroquinazolin-3(4H)-ylsulfonyl)butanoate] — 14-fold lower, 0.0052 µM
- N#Cc1ccc(C2C3=C(CCCC3=O)N(c3cccc(C(F)(F)F)c3)C(=O)N2S(=O)(=O)c2ccccc2C#N)cc1 (stereo not shown) [Example 44.11] — 6.4-fold lower, 0.0114 µM
- N#Cc1ccc(C2C3=C(CCCC3=O)N(c3cccc(C(F)(F)F)c3)C(=O)N2S(=O)(=O)C=Cc2ccccc2)cc1 (stereo not shown) [Example 44.12] — within 1.5-fold, 0.106 µM
- COC(=O)c1cc(S(=O)(=O)N2C(=O)N(c3cccc(C(F)(F)F)c3)C3=C(C(=O)CCC3)C2c2ccc(C#N)cc2)oc1C (stereo not shown) [Example 44.13] — 2.7-fold lower, 0.0273 µM
- N#Cc1ccc(C2C3=C(CCCC3=O)N(c3cccc(C(F)(F)F)c3)C(=O)N2S(=O)(=O)CCCC(=O)O)cc1 (stereo not shown) [Example 45, 4-(4-(4-Cyanophenyl)-2,5-dioxo-1-(3-(trifluoromethyl)phenyl)-1,2,5,6,7,8-hexahydroquinazolin-3(4H)-ylsulfonyl)butanoic acid] — 22-fold lower, 0.0034 µM
- N#Cc1ccc(C2C3=C(CCCC3=O)N(c3cccc(C(F)(F)F)c3)C(=O)N2S(=O)(=O)c2csc(C(=O)O)c2)cc1 (stereo not shown) [Example 46, 4-(4-(4-Cyanophenyl)-2,5-dioxo-1-(3-(trifluoromethyl)phenyl)-1,2,5,6,7,8-hexahydroquinazolin-3(4H)-ylsulfonyl)thiophene-2-carboxylic acid] — 3.4-fold lower, 0.0215 µM
- CNC(=O)N1C(=O)N(c2cccc(C(F)(F)F)c2)C2=C(C(=O)CCC2)C1c1ccc(C#N)cc1S(C)(=O)=O (stereo not shown) [Example 47, 4-(4-Cyano-2-(methylsulfonyl)phenyl)-N-methyl-2,5-dioxo-1-(3-(trifluoromethyl)-phenyl)-1,2,5,6,7,8-hexahydroquinazoline-3(4H)-carboxamide] — lower, < 0.001 µM
- CS(=O)(=O)c1cc(C#N)ccc1C1C2=C(CCCC2=O)N(c2cccc(C(F)(F)F)c2)C(=O)N1C(=O)NCCO (stereo not shown) [Example 47.2] — lower, < 0.001 µM
- CS(=O)(=O)c1cc(C#N)ccc1C1C2=C(CCCC2=O)N(c2cccc(C(F)(F)F)c2)C(=O)N1C(=O)NCCCO (stereo not shown) [Example 47.3] — lower, < 0.001 µM
- CS(=O)(=O)CCNC(=O)N1C(=O)N(c2cccc(C(F)(F)F)c2)C2=C(C(=O)CCC2)C1c1ccc(C#N)cc1S(C)(=O)=O (stereo not shown) [Example 47.4] — lower, < 0.001 µM
- CN1C(=O)N(c2cccc(C(F)F)c2)C2=C(C(=O)CCC2)C1c1ccc(C#N)cc1S(C)(=O)=O (stereo not shown) [Example 49, 4-(1-(3-(Difluoromethyl)phenyl)-3-methyl-2,5-dioxo-1,2,3,4,5,6,7,8-octahydroquinazolin-4-yl)-3-(methylsulfonyl)benzonitrile] — 56-fold lower, 0.0013 µM
- CNC(=O)N1C(=O)N(c2cccc(C(F)F)c2)C2=C(C(=O)CCC2)C1c1ccc(C#N)cc1S(C)(=O)=O (stereo not shown) [Example 50, 4-(4-Cyano-2-(methylsulfonyl)phenyl)-1-(3-(difluoromethyl)phenyl)-N-methyl-2,5-dioxo-1,2,5,6,7,8-hexahydroquinazoline-3(4H)-carboxamide] — lower, < 0.001 µM
- CCNC(=O)N1C(=O)N(c2cccc(C(F)F)c2)C2=C(C(=O)CCC2)C1c1ccc(C#N)cc1S(C)(=O)=O (stereo not shown) [Example 51, 4-(4-Cyano-2-(methylsulfonyl)phenyl)-1-(3-(difluoromethyl)phenyl)-N-ethyl-2,5-dioxo-1,2,5,6,7,8-hexahydroquinazoline-3(4H)-carboxamide] — lower, < 0.001 µM
- N#Cc1ccc(C2NC(=O)N(c3cccc(C(F)(F)F)c3)C3=C2C(=O)CCC3)c(F)c1 (stereo not shown) [Example 52, 4-(2,5-Dioxo-1-(3-(trifluoromethyl)phenyl)-1,2,3,4,5,6,7,8-octahydroquinazolin-4-yl)-3-fluorobenzonitrile] — 2.7-fold lower, 0.0267 µM
- N#Cc1ccc(C2NC(=O)N(c3ccc(F)c(C(F)(F)F)c3)C3=C2C(=O)CCC3)cc1 (stereo not shown) [Example 52.1] — 3.8-fold lower, 0.0193 µM
- N#Cc1ccc(C2NC(=O)N(c3cc(F)cc(C(F)(F)F)c3)C3=C2C(=O)CCC3)cc1 (stereo not shown) [Example 52.2] — 5.3-fold lower, 0.0138 µM
- COc1cc(C#N)ccc1C1NC(=O)N(c2cccc(C(F)(F)F)c2)C2=C1C(=O)CCC2 (stereo not shown) [Example 53, 4-(2,5-Dioxo-1-(3-(trifluoromethyl)phenyl)-1,2,3,4,5,6,7,8-octahydroquinazolin-4-yl)-3-methoxybenzonitrile] — 2.2-fold lower, 0.034 µM
- CCS(=O)(=O)c1cc(C#N)ccc1C1NC(=O)N(c2cccc(C(F)(F)F)c2)C2=C1C(=O)CCC2 (stereo not shown) [Example 54, 4-(2,5-Dioxo-1-(3-(trifluoromethyl)phenyl)-1,2,3,4,5,6,7,8-octahydroquinazolin-4-yl)-3-(ethylsulfonyl)benzonitrile] — 9.8-fold lower, 0.0075 µM
- Cc1cc(C#N)ccc1C1NC(=O)N(c2cccc(C(F)(F)F)c2)C2=C1C(=O)CCC2 (stereo not shown) [Example 55, 4-(2,5-Dioxo-1-(3-(trifluoromethyl)phenyl)-1,2,3,4,5,6,7,8-octahydroquinazolin-4-yl)-3-methylbenzonitrile] — 3.9-fold lower, 0.0187 µM
- N#Cc1ccc(C2NC(=O)N(c3cccc(C(F)(F)F)c3)C3=C2C(=O)CCC3)c(Cl)c1 (stereo not shown) [Example 56, 3-Chloro-4-(2,5-dioxo-1-(3-(trifluoromethyl)phenyl)-1,2,3,4,5,6,7,8-octahydroquinazolin-4-yl)benzonitrile] — 2.2-fold lower, 0.034 µM
- CCN1C(=O)N(c2cccc(C(F)(F)F)c2)C2=C(C(=O)CCC2)C1c1ccc(C#N)cc1S(C)(=O)=O (stereo not shown) [Example 58, 4-(3-Ethyl-2,5-dioxo-1-(3-(trifluoromethyl)phenyl)-1,2,3,4,5,6,7,8-octahydroquinazolin-4-yl)-3-(methylsulfonyl)benzonitrile] — 56-fold lower, 0.0013 µM
